These results are taken from publication PMC8042727, “Apoptosis-like cell death upon kinetoplastid induction by compounds isolated from the brown algae Dictyota spiralis” (Parasites & Vectors, 2021).

Data set [1] can be described thus: Cytotoxicity on macrophages (AlamarBlue, 24 h). The format is cell-based. The note with it: mouse, J774A.1 macrophages, J774A.1, 24 h, read-out: CC50: murine macrophages. As to the method:
Cytotoxicity of the tested molecules was evaluated after 24 h using macrophages of the murine cell line J774.A1 (American Type Culture Collection #TIB-67). The cells were maintained in DMEM medium at 37 °C in a 5% CO2 humidified incubator. The viability of the macrophages was determined with the AlamarBlue assay and the emitted fluorescence was assayed in an Enspire microplate reader (PerkinElmer Inc.) at 570/585 nm. Briefly, 50 µl of macrophages was placed in a 96-well flat bottom plate at a density of 2 × 10^5/ml in RPMI medium supplemented with 10% FBS without phenol. Cells were allowed to adhere for 15 min, and their progress was checked using a Leika inverted microscope (Leika Camera AG, Wetzlar, Germany). At the same time, a serially dilution of the test compounds was made in a deep 96-well plate with the same medium, and then 50 µl of each serially diluted molecule was added to each well of the 96-well flat bottom plate. Finally, 10% of AlamarBlue was added to each well. The plates were incubated at 37 °C in 5% CO2 for 24 h. Dose–response curves were plotted and the 50% cytotoxic concentrations (CC50) were obtained. The analyses were performed in triplicate.

Data set [2] deals with Trypanosoma cruzi epimastigotes (Y strain). The experiment in a line: In vitro evaluation on T. cruzi epimastigotes (AlamarBlue, 72 h). The conditions noted are these: nonlinear regression of AlamarBlue curve, read-out: IC90 Trypanosoma cruzi: epimastigote. Type of data set: cell-based. How it is done:
Experiments including in vitro activity assays of isolated compounds 1–3 were performed against the promastigote and amastigote stages of Leishmania amazonensis (MHOM/BR/77/LTB0016) and the epimastigote stage of Trypanosoma cruzi (Y strain). Promastigotes of L. amazonensis were cultured in Schneider’s medium (Sigma-Aldrich, St. Louis, MO, USA). Typanosoma cruzi strain Y was cultured in liver Infusion tryptose (LIT) medium. The three molecules 1-3 were tested against epimastigotes of T. cruzi. Briefly, the molecules were dissolved in DMSO in 96-well plates and a serially diluted concentration was made in 100 μl of LIT medium supplemented with 10% heat-inactivated FBS. In all tests, a maximum of 1% DMSO was used to dissolve the highest dose of the compounds without inducing any effects on the parasites; epimastigotes in the logarithmic growth phase were then counted, adjusted to 5 × 10^5 cells/ml, distributed on the previous 96-well plate and incubated at 27 °C for 72 h. The plate was observed under an inverted microscope after 72 h of incubation and analyzed statistically as described for the leishmanicidal test. Hoechst dye is a blue-fluorescent dye that stains condensed chromatin of apoptotic cells. To detect DNA condensation, the chromatin condensation/dead cell apoptosis kit was used (Invitrogen, Thermo Fisher Scientific, Waltham, MA, USA). Cells were incubated in the presence of the compounds to be tested at IC90. The IC90 values were determined using nonlinear regression of the AlamarBlue® curve. After 24 h of incubation, cells were harvested and resuspended in medium, following which 1 μl of Hoechst 33342 stock solution was added to parasites and incubated for 20 min. Results were analyzed by cell imaging using the Evos FL cell imaging system (Thermo Fisher Scientific). The experiments were repeated using a double-stain apoptosis detection kit (Hoechst 33342/PI; Thermo Fisher Scientific). […] A positive control was also tested: miltefosine (L. amazonensis) and benznidazole (T. cruzi).

The test system of data set [3] is Trypanosoma cruzi. The experiment in a line: ATP level (CellTiter-Glo). The format is cell-based. The conditions noted are these: T. cruzi, IC90, 24 h, relative to negative control. How it is done:
The CellTiter-Glo® luminescent cell viability assay (Promega, WI, USA) was used to quantify the adenosine triphosphate (ATP) concentration. Cells of the kinetoplastid strains (for both L. amazonensis [2 × 10^6 cells/ml] and T. cruzi [5 × 10^5cells/ml]) were incubated for 24 h with the compounds to be tested, at IC90 and 26 °C. After incubation, the cells were centrifuged and resuspended in 100 μl. To this volume, we added 100 μl of the reactive in white 96-well plates. After incubation, the luminescence signal was measured using the Enspire multimode plate reader. The decrease in ATP level was expressed as a percentage relative to the negative control. Miltefosine and benznidazole were tested as the positive control for L. amazonensis and T. cruzi, respectively.

Data set [4] concerns Trypanosoma cruzi. In words: Oxidative stress / ROS accumulation (CellROX Deep Red). The note with it: T. cruzi, IC90, 24 h. Type of data set: cell-based. As to the method:
(§1) The reagent used for this assay was a fluorogenic probe to measure cellular oxidative stress upon oxidation by reactive oxygen species (ROS). To perform the test, cells were incubated with the compounds to be tested, at IC90 for 24 h. The cells were centrifuged and resuspended in a volume of 50 μl, following which CellROX™ Deep Red oxidative stress reagent (Thermo-Fisher Scientific) was added to 96-well plates at […]. The plates were then incubated for 30 min at 37 °C. After incubation, the results were analyzed by cell imaging using the Evos cell imaging system. Cells treated with different compounds were compared with untreated control cells and the positive control. Fluorescence intensity was also measured using the Enspire multimode plate reader at excitation/emission wavelengths of 640/665 nm. Accumulation ROS at the cellular level is a good indicator of oxidative stress and is precursor to a chain reaction leading damage at the cellular level to proteins, nucleic acids, lipids, membrane and organelles. These cellular alterations can lead to activation of the cell death process. As such, ROS play an important role in cell signaling and the apoptosis pathway. An intracellular excess of ROS can be detected by the cell-permeable CellROX™ Deep Red reagent, which is a fluorogenic ROS sensor.

The test system of another data set is L. amazonensis. The arrangement: method as in PMID 22970332. The conditions noted are these: read-out: IC50 (inhibition of infection by L. amazonensis); cited from earlier work.
The subject of another data set is T. cruzi. On the set-up: method as in PMID 23442789. The note with it: read-out: IC50 against T. cruzi; cited from earlier work.
Data set [5] has as its system Leishmania amazonensis promastigotes. In words: Anti-promastigotes assay (AlamarBlue, 72 h). The format is cell-based. As to the method:
Experiments including in vitro activity assays of isolated compounds 1–3 were performed against the promastigote and amastigote stages of Leishmania amazonensis (MHOM/BR/77/LTB0016) and the epimastigote stage of Trypanosoma cruzi (Y strain). Promastigotes of L. amazonensis were cultured in Schneider’s medium (Sigma-Aldrich, St. Louis, MO, USA). Typanosoma cruzi strain Y was cultured in liver Infusion tryptose (LIT) medium.
The bioassay was performed using the AlamarBlue® method as previously described. Promastigotes of L. amazonensis were grown at 26 °C in RPMI 1640 modified medium (Gibco BRL Life Technologies Inc., Gaithersburg, MD, USA) and supplemented with 10% heat-inactivated fetal bovine serum (FBS). Cultures in the logarithmic phase were seeded in sterilized 96-well microtiter plates (Corning™, Corning, NY, USA) (10^6 parasites/ml) containing the samples dissolved in 1% DMSO at the suitable concentration to be tested in serial dilutions, and Leishmania medium (RPMI 1640) was used to reach a final volume of 200 μl per well; then 10% of AlamarBlue® was added to the entire plate. After an incubation of 72 h, the plate was checked visually using an inverted microscope, then analyzed using an Enspire multimode plate reader (PerkinElmer, Inc., Waltham, MA, USA) at excitation and emission wavelengths of 570 and 585 nm, respectively. Dose–response curves were plotted, and the concentration at which one half of the maximal inhibitory effect was obtained (IC50) was determined. The analyses were performed in triplicate.
(§2) Hoechst dye is a blue-fluorescent dye that stains condensed chromatin of apoptotic cells. To detect DNA condensation, the chromatin condensation/dead cell apoptosis kit was used (Invitrogen, Thermo Fisher Scientific, Waltham, MA, USA). Cells were incubated in the presence of the compounds to be tested at IC90. The IC90 values were determined using nonlinear regression of the AlamarBlue® curve. After 24 h of incubation, cells were harvested and resuspended in medium, following which 1 μl of Hoechst 33342 stock solution was added to parasites and incubated for 20 min. Results were analyzed by cell imaging using the Evos FL cell imaging system (Thermo Fisher Scientific). The experiments were repeated using a double-stain apoptosis detection kit (Hoechst 33342/PI; Thermo Fisher Scientific). […] A positive control was also tested: miltefosine (L. amazonensis) and benznidazole (T. cruzi).

Data set [6] has as its system Leishmania amazonensis amastigotes. In words: Anti-amastigotes assay (intra-macrophagic stage, J774A.1). Type of data set: cell-based. The conditions noted are these: J774.A1; Leishmania amazonensis, intracellular in J774A.1; read-out: IC50: amastigote. As to the method:
The three molecules 1-3 were tested against the intra-macrophagic stage of L. amazonensis as previously described. Briefly, in a 96-well, flat-bottom plate, macrophages of the J774A.1 cell line (American Type Culture Collection #TIB-67) were cultured at a density of 2 × 10^5 cells/ml in RPMI 1640 medium supplemented with 10% heat-inactivated FBS and incubated for 1 h at 37 °C in a 5% CO2 atmosphere to allow almost complete attachment of the cells. The macrophages were then infected with L. amazonensis promastigotes in the stationary phase (7-day-old culture) at a ratio of 1:10 (macrophage:parasite) at a concentration of 2 × 10^6 cells/ml and incubated at 37 °C in 5% CO2 for 24 h. Wells were washed with medium to remove external promastigotes. Thereafter, the infected macrophages were treated with the serially diluted concentrations of the pure compounds for 24 h, following which the medium was removed carefully and replaced by 30 μl of new medium containing 0.05% sodium dodecyl sulfate and the plate shaken for 30 s. Subsequently, 170 μl of Schneider’s medium was added to each well to give a final volume of 200 μl, and 20 μl of AlamarBlue® was added to the plate; the plate was then incubated at 26 °C for 72 h, following which the plates were analyzed using the same protocol as for the promastigotes assay.

Another data set relates to Leishmania amazonensis. The experiment in a line: Oxidative stress / ROS accumulation (CellROX Deep Red). The format is cell-based. The conditions noted are these: L. amazonensis, IC90, 24 h. As to the method:
as §1

Data set [7] has as its system Leishmania amazonensis promastigotes. In words: DNA condensation assay (Hoechst 33342 / PI). The format is cell-based. The note with it: L. amazonensis promastigotes, IC90, 24 h. How it is done: as §2
DNA condensation is an important cellular event, providing evidence of apoptotic cell death. Hoechst dye is a blue-fluorescent dye that stains condensed chromatin. […] Also, using propidium iodine (PI), it is possible to distinguish dead cells, which stain red when PI penetrates the nucleus. The results of staining were evaluated using cell imaging. Different microscopy images are regrouped in Fig. 2 (for L. amazonensis) and Fig. 3 (for T. cruzi). […] A clear reduction in cell number is also evident.

Turning to `O=C(Cn1ccnc1[N+](=O)[O-])NCc1ccccc1` [Benznidazole, reference compound], in data set [1], the CC50 at 24 h was found to be 400 µM. Further, the concentration for an effect of 90% (IC90) in data set [2] turned out to be 25.6 µM. The “decrease in ATP concentration” value with Trypanosoma cruzi [3] is reported as over 80%. Also, the “ROS accumulation (fluorescence vs negative control)” value in the data set on Trypanosoma cruzi [4] is “significant increase in fluorescence”.

For `C[C@H]1/C=C/[C@@]2(C)CC[C@@H](C(C)(C)O)[C@@H]2[C@@H](O)C[C@](C)(O)/C=C/C1` [Dolabelladienetriol], the IC50 in the data set with L. amazonensis is 44 µM.

As for `CC(C)=CC(=O)C/C(C)=C/CC/C(C)=C/CC/C(C)=C/CO` [Eleganolone], the IC50 in the data set on T. cruzi is 58 µM.

`CCCCCCCCCCCCCCCCOP(=O)([O-])OCC[N+](C)(C)C` [Miltefosine, reference compound]: the CC50 at 24 h in data set [1] is 72.2 µM. Further, the IC50 in data set [5] (72 h, read-out: IC50: promastigote) was found to be 6.47 ± 0.58 µM; in data set [6], 3.11 µM. Moreover, the IC90 in data set [5] (nonlinear regression of AlamarBlue curve, read-out: IC90 Leishmania amazonensis: promastigote) stood at 9.63 µM. Further, the “ROS accumulation (fluorescence vs negative control)” value in the data set on Leishmania amazonensis was “more remarkable”. The “chromatin condensation / cell death stage (Hoechst/PI staining)” value in data set [7] is listed as “dead cells”.
